Test results taken from patent US10494366B2, “Pesticidally active amide heterocyclic derivatives with sulphur containing substituents” (Syngenta Participations AG, priority 2014, dated 2019).

How the values were obtained:
[1] = system: Spodoptera littoralis (Egyptian cotton leaf worm); experiment: Example B1: Spodoptera littoralis, sprayed cotton leaf discs; assay type: in vivo; settings: foliar, 72 h, application rate 200 ppm, L1 larvae, 3 days after infestation, read-out: control in at least one of the three categories (mortality, anti-feedancy or growth inhibition)
Description: Cotton leaf discs were placed on agar in 24-well microtiter plates and sprayed with aqueous test solutions prepared from 10,000 ppm DMSO stock solutions. After drying the leaf discs were infested with five L1 larvae. The samples were assessed for mortality, anti-feedant effect, and growth inhibition in comparison to untreated samples 3 days after infestation. Control of Spodoptera littoralis by a test sample is when at least one of mortality, anti-feedant effect, and growth inhibition is higher than the untreated sample.

[2] = system: Myzus persicae (green peach aphid); experiment: Example B5: Myzus persicae, sprayed sunflower leaf discs; assay type: in vivo; settings: foliar, 144 h, application rate 200 ppm, aphid population of mixed ages, 6 days after infestation
Description: Sunflower leaf discs were placed on agar in a 24-well microtiter plate and sprayed with aqueous test solutions prepared from 10,000 ppm DMSO stock solutions. After drying, the leaf discs were infested with an aphid population of mixed ages. The samples were assessed for mortality 6 days after infestation.

[3] = system: Diabrotica balteata (corn root worm); experiment: Example B4: Diabrotica balteata, sprayed maize sprouts; assay type: in vivo; settings: 96 h, application rate 200 ppm, L2 larvae, 4 days after infestation, read-out: effect in at least one of the two categories (mortality or growth inhibition)
Description: Maize sprouts, placed on an agar layer in 24-well microtiter plates were treated with aqueous test solutions prepared from 10,000 ppm DMSO stock solutions by spraying. After drying, the plates were infested with L2 larvae (6 to 10 per well). The samples were assessed for mortality and growth inhibition in comparison to untreated samples 4 days after infestation.

[4] = system: Euschistus heros (neotropical brown stink bug); experiment: Example B6: Euschistus heros, sprayed soybean leaf; assay type: in vivo; settings: 120 h, application rate 200 ppm, N-2 nymphs, 5 days after infestation
Description: Soybean leaf on agar in 24-well microtiter plates were sprayed with aqueous test solutions prepared from 10,000 ppm DMSO stock solutions. After drying the leaf were infested with N-2 nymphs.

[5] = system: Plutella xylostella (diamond back moth); experiment: Example B3: Plutella xylostella, treated artificial diet; assay type: in vivo; settings: 120 h, application rate 200 ppm, L2 larvae, 5 days after infestation, read-out: effect in at least one of the two categories (mortality or growth inhibition)
Description: 24-well microtiter plates with artificial diet were treated with aqueous test solutions prepared from 10,000 ppm DMSO stock solutions by pipetting. After drying, the plates were infested with L2 larvae (10 to 15 per well). The samples were assessed for mortality and growth inhibition in comparison to untreated samples 5 days after infestation.

[6] = system: Spodoptera littoralis (Egyptian cotton leaf worm); experiment: Example B2: Spodoptera littoralis, systemic test via lettuce roots in agar; assay type: in vivo; settings: 144 h, application rate 12.5 ppm, Spodoptera eggs, 6 days after infestation, read-out: control in at least one of the three categories (mortality, anti-feedancy or growth inhibition)
Description: Test compounds were applied by pipette from 10,000 ppm DMSO stock solutions into 24-well plates and mixed with agar. Lettuce seeds were placed on the agar and the multi well plate was closed by another plate which contains also agar. After 7 days the roots have absorbed the compound and the lettuce has grown into the lid plate. The lettuce leafs were now cut off into the lid plate. Spodoptera eggs were pipetted through a plastic stencil on a humid gel blotting paper and the plate closed with it. The samples were assessed for mortality, anti-feedant effect and growth inhibition in comparison to untreated samples 6 days after infestation.
The following compounds gave an effect of at least 80% control in at least one of the three categories (mortality, anti-feedancy or growth inhibition) at an application rate of 12.5 ppm: P2, P3, P8, P9, P11 and P17, P19, P20, P22, P23, P25, P26, P28, P30, P31, P32, P33, P40, P42, P43, P44, P45, P46, P47, P48, P49, P50, P51, P52, P53, P54, P60 and P61.

[7] = system: Tetranychus urticae (two-spotted spider mite); experiment: Example B8: Tetranychus urticae, sprayed bean leaf discs; assay type: in vivo; settings: foliar, 192 h, application rate 200 ppm, mixed population (mobile stages), 8 days after infestation
Description: Bean leaf discs on agar in 24-well microtiter plates were sprayed with aqueous test solutions prepared from 10,000 ppm DMSO stock solutions. After drying the leaf discs were infested with a mite population of mixed ages.

Row | Structure (SMILES) | melting point | percent control (mortality, anti-feedant effect or growth inhibition) at 200 ppm [1] | mortality at 200 ppm [2] | percent effect (mortality or growth inhibition) at 200 ppm [3] | mortality at 200 ppm [4] | percent effect (mortality or growth inhibition) at 200 ppm [5] | percent control (mortality, anti-feedant effect or growth inhibition) at 12.5 ppm [6] | mortality at 200 ppm [7]
1 | CCS(=O)(=O)c1cc(-c2cccc(Cl)c2)cnc1C(=O)/N=c1\sc(C(F)(F)F)nn1C | 184 to 186 °C | – | – | – | – | – | – | –
2 | CCS(=O)(=O)c1cc(-c2ccc(C(F)(F)F)cc2)cnc1C(=O)/N=c1\sc(C(F)(F)F)nn1C [Compound P5] | – | ≥ 80% | ≥ 80% | ≥ 80% | ≥ 80% | ≥ 80% | – | –
3 | CCS(=O)(=O)c1cc(C2(C#N)CC2)cnc1C(=O)/N=c1\sc(C(F)(F)F)nn1C [Compound P19] | – | ≥ 80% | ≥ 80% | ≥ 80% | ≥ 80% | ≥ 80% | ≥ 80% | –
4 | CCS(=O)(=O)c1cc(-c2cc(C(F)(F)F)ccn2)cnc1C(=O)/N=c1\sc(C(F)(F)F)nn1C [Compound P70] | – | ≥ 80% | – | ≥ 80% | – | ≥ 80% | – | ≥ 80%
5 | CCS(=O)(=O)c1cc(-c2ccc(C(F)(F)F)cc2)cnc1C(=O)N=c1ccc(SC(F)(F)F)cn1C [Compound P16] | – | ≥ 80% | ≥ 80% | ≥ 80% | ≥ 80% | ≥ 80% | – | –
6 | CCS(=O)(=O)c1cc(-c2cccc3c2OC(F)(F)O3)cnc1C(=O)/N=c1\sc(C(F)(F)F)nn1C [Compound P29] | – | ≥ 80% | – | ≥ 80% | ≥ 80% | ≥ 80% | – | ≥ 80%
7 | CCS(=O)(=O)c1cc(C2CC2)cnc1C(=O)/N=c1\ccc(SC(F)(F)F)cn1C [Compound P18, (N)-5-cyclopropyl-3-ethylsulfonyl-N-[1-methyl-5-(trifluoromethylsulfanyl)-2-pyridylidene]pyridine-2-carboxamide] | – | ≥ 80% | ≥ 80% | ≥ 80% | ≥ 80% | ≥ 80% | – | –
8 | CCS(=O)(=O)c1cc(-c2ccnc(F)c2)cnc1C(=O)/N=c1\sc(C(F)(F)F)nn1C [Compound P54] | – | ≥ 80% | ≥ 80% | ≥ 80% | ≥ 80% | ≥ 80% | ≥ 80% | –
9 | CCS(=O)(=O)c1cc(-c2ncc(Cl)cc2Cl)cnc1C(=O)/N=c1\sc(C(F)(F)F)nn1C [Compound P46] | – | ≥ 80% | ≥ 80% | ≥ 80% | ≥ 80% | ≥ 80% | ≥ 80% | –
10 | CCS(=O)(=O)c1cc(-c2ncc(F)cc2F)cnc1C(=O)/N=c1\sc(C(F)(F)F)nn1C [Compound P66] | – | ≥ 80% | ≥ 80% | ≥ 80% | ≥ 80% | ≥ 80% | – | –
11 | CCSc1cc(-c2ccc(C(F)(F)F)cc2)cnc1C(=O)/N=c1\sc(C(F)(F)C(F)(F)F)nn1C | 173 to 175 °C | – | – | – | – | – | – | –
12 | CCS(=O)(=O)c1cc(-c2ccc(Cl)cc2)cnc1C(=O)/N=c1\sc(C(F)(F)F)nn1C [Compound P2, (N)-5-(4-chlorophenyl)-3-ethylsulfonyl-N-[3-methyl-5-(trifluoromethyl)-1,3,4-thiadiazol-2-ylidene]pyridine-2-carboxamide] | – | ≥ 80% | ≥ 80% | ≥ 80% | ≥ 80% | ≥ 80% | ≥ 80% | –
13 | CCSc1cc(-c2ccc(Cl)cc2)cnc1C(=O)/N=c1\sc(C(F)(F)F)nn1C | 147 to 148 °C | – | – | – | – | – | – | –
14 | CCSc1cc(-n2ccc(C(F)(F)F)n2)cnc1C(=O)/N=c1\sc(C(F)(F)C(F)(F)F)nn1C | 219 to 221 °C | – | – | – | – | – | – | –
15 | CCS(=O)(=O)c1cc(-c2ccccc2)cnc1C(=O)/N=c1\sc(C(F)(F)F)nn1C [Compound P6, (N)-3-ethylsulfonyl-N-[3-methyl-5-(trifluoromethyl)-1,3,4-thiadiazol-2-ylidene]-5-phenyl-pyridine-2-carboxamide] | – | ≥ 80% | ≥ 80% | ≥ 80% | ≥ 80% | ≥ 80% | – | –
16 | CCS(=O)(=O)c1cc(-c2nc(C(F)(F)F)cs2)cnc1C(=O)/N=c1\sc(C(F)(F)F)nn1C [Compound P60] | – | ≥ 80% | ≥ 80% | ≥ 80% | – | ≥ 80% | ≥ 80% | –
17 | CCS(=O)(=O)c1cc(-c2nccc(C(F)(F)F)n2)cnc1C(=O)/N=c1\sc(C(F)(F)F)nn1C [Compound P40] | – | ≥ 80% | ≥ 80% | ≥ 80% | ≥ 80% | ≥ 80% | ≥ 80% | –
18 | CCS(=O)(=O)c1cc(-c2cncc(C(F)(F)F)c2)cnc1C(=O)/N=c1\sc(C(F)(F)F)nn1C [Compound P53] | – | ≥ 80% | ≥ 80% | ≥ 80% | – | ≥ 80% | ≥ 80% | –
19 | CCS(=O)(=O)c1cc(-c2ccc(Cl)cc2)cnc1C(=O)/N=c1\sc(C(F)(F)C(F)(F)F)nn1C [Compound P11] | – | ≥ 80% | ≥ 80% | ≥ 80% | ≥ 80% | ≥ 80% | ≥ 80% | –
20 | CCS(=O)(=O)c1cc(-c2ccc(C(F)(F)F)cc2)ccc1C(=O)/N=c1\sc(C(F)(F)F)nn1C | 140 to 142 °C | – | – | – | – | – | – | –
21 | CCS(=O)(=O)c1cc(-c2cccc(Cl)n2)cnc1C(=O)/N=c1\sc(C(F)(F)F)nn1C [Compound P64, (N)-5-(6-chloro-2-pyridyl)-3-ethylsulfonyl-N-[3-methyl-5-(trifluoromethyl)-1,3,4-thiadiazol-2-ylidene]pyridine-2-carboxamide] | – | ≥ 80% | ≥ 80% | ≥ 80% | ≥ 80% | ≥ 80% | – | –
22 | CCS(=O)(=O)c1cc(-c2ccccn2)cnc1C(=O)/N=c1\sc(C(F)(F)F)nn1C [Compound P51] | – | ≥ 80% | ≥ 80% | ≥ 80% | ≥ 80% | ≥ 80% | ≥ 80% | –
